Here are results for two substances from patent publication US7045343B2, “Sterilization indicator test packs” (3M Innovative Properties Company, priority 1998, dated 2006).

Test [1] relates to Bacillus stearothermophilus spores. Kind of test: Spore outgrowth (color change) of indicators after prevacuum steam sterilization. The class given is cell-based. The conditions noted are these: 4-pulse prevacuum steam 121° C. The method, then: (§1) The indicators prepared for the Examples were dual rapid readout indicators that provided both a rapid, enzyme-based efficacy test and a confirmatory spore outgrowth test. Spores coated on the carrier strip 16 served as the source of active enzyme whose activity was measured by the rapid enzyme test. These same spores were then incubated in the spore outgrowth portion of the test.
(§2) Bacillus stearothermophilus, commercially available as ATCC 7953 from American Type Culture Collection, Rockville, Md., was grown overnight (16 hours) at 58° C. in tryptic soy broth. This culture was used to inoculate the surface of agar plates consisting of 8 g/l nutrient broth, 4 g/l yeast extract, 0.1 g/l manganese chloride and 20 g/l agar at pH 7.2. Plates were incubated at 58° C. for 72 hours. Spores were scraped from the plates and suspended in sterile distilled water. The spores were separated from the vegetative debris by centrifuging the suspension at 7000 rpm and 4° C. for 20 minutes. The supernatant was poured off and the spores were resuspended in sterile distilled water. The cleaning procedure was repeated several times. After the final wash, the spores were suspended in sterile distilled water, at a concentration of approximately 1×10^8 spores per milliliter.
(§3) The spores were then treated with the chemicals identified in Tables 1–5. All chemicals tested were obtained from commercial sources. The spores were centrifuged at 6000 rpm for 10 minutes. The supernatant and coating chemical mixtures were heated at 60–80° C. for several minutes and vortexed to get the material into solution. The spores were then mixed into the sterilant-resistant chemical solution. The sterilant-resistant chemical solution was applied to 5×25 mm, 591 A paper strips (Schleicher & Schuell, Inc., Keene, N.H.) by pipetting 10–15 microliters to each strip for a final population of about 1×10^6 spores per strip. The strips were dried 16 hours at 37° C.
(§4) The treated spore strips were placed on the bottom of the outer container 12 of the indicator 10 and a barrier was inserted between the spore strip 16 and the inner container 18, which contained enzyme substrate. A […] ( 11/16 inch) disc of polypropylene blown microfiber material, with a weight of 200 g/m^2, commercially available as “THINSULATE™ 200-B brand Thermal Insulation” from 3M Company, St. Paul, Minn., was used as the barrier. The inner container 18 contained 0.67 ml nutrient medium, consisting of 17 g of a bacteriological peptone and a 0.17 g/l of L-alanine, as well as 0.1 g 4-methylumbelliferyl-alpha-D-glucoside, commercially available from Sigma Chemical Company, St. Louis, Mo., dissolved in 200 microliters of N,N-dimethylformamide, and 0.03 g bromocresol purple pH indicator dye, per liter of water. The pH of the enzyme substrate and nutrient medium solution was adjusted to 7.6 with 0.1N sodium hydroxide.
(§5) Sterilization indicators were made as described above with each of the chemicals and concentrations described in Table 1. Control indicators were made using untreated spores. The indicators were placed in metal instrument trays and exposed at 121° C. in a Getinge Steam Sterilizer (Getinge International, Inc., 1100 Towbin Ave., Lakewood, N.J.) using a 4-pulse prevacuum cycle at 121° C. with a vacuum level of 0.075–0.085 bar and a steam pulse to 1.00 bar for each pulse. Indicators were exposed in the sterilizer for between 7 and 13 minutes. This cycle is depicted in the time-pressure diagram in FIG. 5. After exposure the inner containers containing the enzyme substrate and nutrient medium were crushed and the indicators were incubated at 60° C. The indicators were examined for fluorescence using a 3M™ ATTEST™ Model 190 Rapid Autoreader, commercially available from 3M Company, St. Paul, Minn. Additionally, spore growth, as indicated by a color change from purple to yellow, was determined visually after 168 hours of incubation at 60° C. […]

Test [2] has as its system enzyme associated with Bacillus stearothermophilus spores. Kind of test: Rapid enzyme fluorescence readout of dual rapid readout indicators after prevacuum steam sterilization. Format: biochemical. The settings on record: 4-pulse prevacuum steam 121° C. The method, then:
as §1, §2, §3, §4, §5

Where [3] appears, read: Example 4, 50 mg/ml coating, 7–18 min.
[4] abbreviates: Example 4, 100 mg/ml coating, 7–18 min.
Where [5] appears, read: Example 5, 50 mg/ml coating, 7–13 min.
Where [6] appears, read: Example 5, 100 mg/ml coating, 7–13 min.

As for Hexaglyceryl Monolaurate, the “NO. GROWTH POSITIVE 168 HR” value in test [1] (setting [3]) worked out at 7. For the same substance, the “NO. GROWTH POSITIVE 168 HR” value in test [1] (setting [4]) is listed as 20. The “accuracy of sterilization indicators compared to indicators made with untreated spores” value in test [2] is given as “improved”. For the same substance, in test [2] (setting [3]), the “FLUORESCENCE - PERCENT POSITIVE 1 HR” value worked out at 0%, the “FLUORESCENCE - PERCENT POSITIVE 2 HR” value is reported as 28.6%, the “FLUORESCENCE - PERCENT POSITIVE 3 HR” value is 57.1% and the “FLUORESCENCE - PERCENT POSITIVE 4 HR” value is 71.4%. Further, in test [2] (setting [4]), the “FLUORESCENCE - PERCENT POSITIVE 1 HR” value is 90.0%, the “FLUORESCENCE - PERCENT POSITIVE 2 HR” value is reported as 100.0%, the “FLUORESCENCE - PERCENT POSITIVE 3 HR” value is 100.0% and the “FLUORESCENCE - PERCENT POSITIVE 4 HR” value was found to be 100.0%.
As to Decaglyceryl Monooleate, the “NO. GROWTH POSITIVE 168 HR” value came to 10 in test [1] (setting [3]), 26 in test [1] (setting [4]), 6 in test [1] (setting [5]) and 2 in test [1] (setting [6]). The “accuracy of sterilization indicators compared to indicators made with untreated spores” value in test [2] was “improved”. The “FLUORESCENCE - PERCENT POSITIVE 1 HR” value amounted to 0% in test [2] (setting [3]), 7.7% in test [2] (setting [4]), 0% in test [2] (setting [5]) and 0% in test [2] (setting [6]). Further, the “FLUORESCENCE - PERCENT POSITIVE 2 HR” value in test [2] (setting [3]) was determined as 0%; in test [2] (setting [4]), 23.1%; in test [2] (setting [5]), 0%; in test [2] (setting [6]) it was 50%. The “FLUORESCENCE - PERCENT POSITIVE 3 HR” value is 0% in test [2] (setting [3]), 50% in test [2] (setting [4]), 0% in test [2] (setting [5]) and 100% in test [2] (setting [6]). For the same substance, the “FLUORESCENCE - PERCENT POSITIVE 4 HR” value in test [2] (setting [3]) was 0%; in test [2] (setting [4]), 73.1%; in test [2] (setting [5]), 0%; in test [2] (setting [6]), 100%.
